Reference: patent US10232043B2, “Photoactivated molecules for light-induced modulation of the activity of electrically excitable cells and methods of using the same” (UNIVERSITY OF SOUTHERN CALIFORNIA, priority 2015, dated 2019)
“Also recorded” adds a separate entry of the source.

Experiments:
mouse chromaffin cells = assay: Carbon-fiber amperometry, light-triggered secretion; format: cell-based
Protocol: Carbon fiber electrodes were prepared using established methodology and coupled to an EPC10 amplifier. A +800 mV constant voltage was applied to the electrode relative to the Ag/AgCl bath electrode. The amperometry recordings were sampled at 4 kHz using Pulsemaster (HEKA). Extracellular composition consisted of 120 mM NaCl, 20 mM KCl, 10 mM HEPES, 1 mM MgCl2, 2 mM CaCl2, 10 mM glucose, pH adjusted to 7.2-7.4, and osmolarity adjusted to 290-300. Light stimulation in the blue spectrum originated from a xenon lamp source through a 470/40 nm bandpass excitation filter. The duration of illumination varied and is indicated by bars on figures.
Action potential firing triggers secretion of norepinephrine and epinephrine from adrenal chromaffin cells, which can be readily detected by the technique of carbon-fiber amperometry, thus serving as a surrogate to detect action potential firing. […] Out of 18 RubpyC17-loaded cells tested, 15 cells (83%) experienced increased secretion by at least 100-fold during light illumination. Unlike the changes in light-induced depolarization, light-induced changes in secretion appeared to be more transient One possible explanation for this is that at any moment in time, there are only a small number of release-competent vesicles—the so-called readily releasable pool of vesicles and maintained stimulation causes rapid depletion of the readily releasable pool of vesicles in the initial phase of stimulation.

HEK293T cells = assay: Voltage-clamp membrane current under light; format: cell-based, human; conditions: approximately −80 mV
Protocol: To examine whether light-activated RubpyC17 can directly interact and open or block endogenous ion channels, HEK293T cells were preincubated with RubpyC17, and patch-clamped in a voltage-clamp configuration. Voltage-clamp configuration allowed the cells to be clamped at a potential where most voltage-gated ion channels are closed (approximately −80 mV). […] The current-voltage relationship (see FIGS. 21C and 21D) as well as the steady-state voltage-dependent activation curves of RubpyC17-treated chromaffin cells in voltage-clamp mode before and during light illumination (see FIG. 21E).

chromaffin cells = assay: Cell-attached patch test for membrane perforation; format: cell-based, mouse; conditions: in patch pipette, RubpyC17 18 μM, 10 min, amphotericin B within 5 min
Description: FIGS. 21A-21H depict data from various experiments related to characteristics of RubpyC17-loaded cells. […] Inset images shown to the right of trace confirmed proper integration of RubpyC17 in patched cells. FIGS. 21C-21E show the light-induced action potential firing in chromaffin cells was not due to biophysical changes in voltage-gated ion channels as there were no significant changes in current-voltage relationships (21C-21D) nor in steady-state activation curve (21E) in RubpyC17-loaded chromaffin cells before (open circle) or during (open circle) light illumination. […] Peak inward currents from each stimulation jump were plotted against corresponding stimulating voltages (n=6). […] Data from representative cell is shown (n=5). […] Currents resulting from capacitor-like behavior of chromaffin cell membranes during hyperpolarizing jumps to −85 mV from a resting membrane potential of −80 mV were recorded 5 min following giga-seal formation for amphoterecin B (bottom trace) or 10 min following giga-seal formation for RubpyC17 (top trace).
Finally, to test whether illumination of RubpyC17 incorporated in cell membranes causes nonspecific membrane poration or other damage, 18 μM RubpyC17 was loaded inside a patch pipette and attached to a cell (gigaseal formation) in the cell-attached configuration. This is the same configuration used routinely for perforated-patch recording. […]

[1] = system: cell lines and primary cells; assay: Cell tolerance to RubpyC17 incubation (gigaseal stability, viability); format: cell-based
Protocol: However, in several embodiments, other organic ligands coupled to other transition metals are also used, with reduced and/or non-existent adverse side effects. […] Excessive and prolonged whole cell incubation with RubpyC17 (e.g., >10 μM for >5 min) may result in cell toxicity, since a stable gigaseal cannot be stably maintained in those cells. At this time, the mechanism behind the adverse effects on cell health upon RubpyC17 overexposure is not yet fully known. Since perforation was not achieved when a small patch of membrane was exposed to a high dose of RupbyC17, it was hypothesized that when an entire cell is overexposed to RubpyC17, there may be sufficient random interactions between excess RubpyC17 complex and endogenous surface molecules (i.e., proteins, carbohydrates, sugars), triggering signals that lead to cell health deterioration. However, when used in its appropriate dose range (e.g., <about 10 μM for cell lines and <about 2 μM for primary cells, according to one embodiment), RubpyC17 is tolerated by cells and consistently confers light sensitivity.

CCCCCCCCCCCCCCCCCc1ccnc(-c2cc(C)ccn2)c1.F[P-](F)(F)(F)(F)F.F[P-](F)(F)(F)(F)F.[Ru+2].c1ccc(-c2ccccn2)nc1.c1ccc(-c2ccccn2)nc1 [RubpyC17, [Ru(bpy)2(bpy-C17)](PF6)2]
amperometric current spikes (vesicular secretion) under light (mouse chromaffin cells; 2 μM RubpyC17, 488 nm): exhibited numerous amperometric current spikes | cells with increased secretion during light illumination (mouse chromaffin cells; 15 of 18 RubpyC17-loaded cells): 83% | increase of secretion during light illumination (mouse chromaffin cells; responding cells): at least 100 fold | light-induced changes in membrane current (HEK293T cells): did not exhibit light-induced changes in membrane current | capacitive charging transient (membrane perforation) (chromaffin cells): an increase in the capacitive charging transient was not detected; also recorded: did not perforate chromaffin cells | dose range tolerated by cells ([1]; cell lines): < 10 µM | viability after incubation ([1]; chromaffin cells, ~30 min with RubpyC17): continued viability of chromaffin cells | whole cell incubation concentration that may result in cell toxicity ([1]; for >5 min, stable gigaseal not maintained): > 10 µM | dose range tolerated by cells ([1]; primary cells): < 2 µM
